# Measured values reported in US8969395B2, “Triterpenoid derivatives useful as antiproliferative agents” (Universidade de Coimbra, priority 2009, dated 2015).
# Legend:
# Format in all cases: cell-based
# Jurkat (human leukemia) = assay: Cytotoxic activity, XTT assay, Jurkat; conditions: 72 h, mean ±SD
# Description: (§1) The cytotoxic of compounds of formulas (I) and (II) 14-50 was assessed towards human cancer (HepG2, HeLa and Jurkat) cell lines (Table 3 below). Compounds presented on Table 4 were also tested against a non-tumoral liver cell line (Chang liver). The cell viability of HeLa, HepG2 and Chang liver cells was determined by the MTT assay. Briefly, exponentially growing cells were plated in 96-well plates at a density of 1×10^3, 8×10^3 and 5×10^3 cells/well respectively and incubated for 24 h before treatment. The grown medium was replaced with one contained the tested compounds dissolved in DMSO (final DMSO concentration <0.1%) at different concentrations, in triplicate wells, and cells were incubated for 72 h. After incubation with the compounds, the medium was removed and MTT solution (0.5 mg/ml, 100 μl) was added to each well and the plates were incubated again for 1 h. DMSO (100 μl) was then added to dissolve the formazan crystals and the plates were immediately read at 550 nm on an ELISA plate reader (Tecan Sunrise MR20-301, TECAN, Austria). For the Jurkat cells, the cell viability was determined by the XTT assay. Briefly, exponentially growing cells were plated in 96-well plates at a density of 5.5×10^3 cells/well, treated with different concentrations of compounds in triplicate and incubated for 72 h. After incubation with the compounds the XTT labeling mixture (100 μl) were added to each of the wells and after a 4 h incubation period the plates were read at 450 nm on an ELISA plate reader. […] Known for its cytotoxic activity, betulinic acid 2 was used as a positive control in this experimentation. […] All the IC50 results represent an average of a minimum of three experiments and were expressed as means±standard deviation (SD).
# [1] = system: HepG2 (human hepatocellular carcinoma); assay: Cytotoxic activity, MTT assay, HepG2; conditions: 72 h, mean ±SD
# Description: as §1
# [2] = system: HeLa (human cervical adenocarcinoma); assay: Cytotoxic activity, MTT assay, HeLa; conditions: 72 h, mean ±SD
# Description: The cytotoxic of compounds of formulas (I) and (II) 14-50 was assessed towards human cancer (HepG2, HeLa and Jurkat) cell lines (Table 3 below). Compounds presented on Table 4 were also tested against a non-tumoral liver cell line (Chang liver). The cell viability of HeLa, HepG2 and Chang liver cells was determined by the MTT assay. Briefly, exponentially growing cells were plated in 96-well plates at a density of 1×10^3, 8×10^3 and 5×10^3 cells/well respectively and incubated for 24 h before treatment. The grown medium was replaced with one contained the tested compounds dissolved in DMSO (final DMSO concentration <0.1%) at different concentrations, in triplicate wells, and cells were incubated for 72 h. After incubation with the compounds, the medium was removed and MTT solution (0.5 mg/ml, 100 μl) was added to each well and the plates were incubated again for 1 h. DMSO (100 μl) was then added to dissolve the formazan crystals and the plates were immediately read at 550 nm on an ELISA plate reader (Tecan Sunrise MR20-301, TECAN, Austria). For the Jurkat cells, the cell viability was determined by the XTT assay. Briefly, exponentially growing cells were plated in 96-well plates at a density of 5.5×10^3 cells/well, treated with different concentrations of compounds in triplicate and incubated for 72 h. After incubation with the compounds the XTT labeling mixture (100 μl) were added to each of the wells and after a 4 h incubation period the plates were read at 450 nm on an ELISA plate reader. […] Known for its cytotoxic activity, betulinic acid 2 was used as a positive control in this experimentation.
# [3] = system: HT-29 (human colon adenocarcinoma); assay: Cytotoxic activity, HT-29; conditions: mean ±SD
# Description: Compounds presented in Table 6 were also tested in the following cell lines: PC-3 (human prostate adenocarcinoma), LNCaP (human prostate adenocarcinoma), LAPC4 (human prostate adenocarcinoma) and HT-29 (human colon adenocarcinoma).
SMILES,IC50 (Jurkat (human leukemia)) [µM],IC50 [1] [µM],IC50 [2] [µM],IC50 [3] [µM]
"C=C(COC)[C@@H]1CC[C@]2(COC(=O)n3ccnc3C)CC[C@]3(C)[C@H](CC[C@@H]4[C@@]5(C)CC[C@H](O)C(C)(C)[C@@H]5CC[C@]43C)[C@@H]12 [Compound 36, 3β-hydroxy-30-methoxylup-20(29)-en-28-yl-2′-methyl-1H-imidazole-1-carboxylate]",24.8 ± 4.7,14.4 ± 1.3,8.9 ± 2.1,10.4 ± 1.6
"Cc1nccn1C(=O)OC[C@]12CC[C@@H]([C@@H](C)C=O)C1[C@H]1CC[C@@H]3[C@@]4(C)CC[C@H](O)C(C)(C)[C@@H]4CC[C@@]3(C)[C@]1(C)CC2 (stereo partly drawn) [Compound 42, 3β-hydroxy-(20R)-lupan-29-oxo-28-yl-2′-methyl-1H-imidazole-1-carboxylate]",21.3 ± 4.1,14.3 ± 2.4,16.6 ± 1.5,15.8 ± 1.7
"C=C(C)[C@@H]1CC[C@]2(C(=O)n3ccnc3C)CC[C@]3(C)[C@H](CC[C@@H]4[C@@]5(C)CCC(=O)C(C)(C)[C@@H]5CC[C@]43C)[C@@H]12 [Compound 45, 28-(2′-methyl-1H-imidazol-1-yl)-lup-20(29)-en-3,28-dione]",9.3 ± 2.2,5.5 ± 1.1,4.2 ± 1.2,4.7 ± 1.1
"C=C(C)[C@@H]1CC[C@]2(C(=O)n3ccnc3C)CC[C@]3(C)[C@H](CC[C@@H]4[C@@]5(C)C=CC(=O)C(C)(C)[C@@H]5CC[C@]43C)[C@@H]12 [Compound 47, 28-(2′-methyl-1H-imidazol-1-yl)-lup-1,20(29)-dien-3,28-dione]",9.4 ± 0.8,12.7 ± 1.2,6.4 ± 0.8,5.9 ± 0.3
"C=C(C)[C@@H]1CC[C@]2(C(=O)O)CC[C@]3(C)[C@H](CC[C@@H]4[C@@]5(C)C=C(OC(=O)n6ccnc6C)C(=O)C(C)(C)[C@@H]5CC[C@]43C)[C@@H]12 [Compound 50, 2-(2′-methyl-1H-imidazole-1-carbonyloxy)-3-oxolup-1,20(29)-dien-28-oic acid]",12.5 ± 1.2,6.8 ± 1.5,10.6 ± 0.7,9 ± 1.7
